Patent US5665716A, “24-homo vitamin D derivatives, process for their production and pharmaceutical preparations obtained therefrom” (Schering Aktiengesellschaft, priority 1989, dated 1997)

tested on: Keratinocytes of newly born mice; experiment: antiproliferative potency: 3H thymidine incorporation in DNA of keratinocytes; assay type: cell-based, mouse (neonatal NMRI mice); conditions: Keratinocyte; neonatal mouse keratinocytes, 24 hours with test substance in serum-free medium at 32.5° C., then 4 hours 3H methyl thymidine; read-out: IC50, inhibition of 3H thymidine incorporation in DNA
Protocol: Keratinocytes of newly born mice, with a slight change of the method of Yuspa, S. and Harris, C.
Neonatal NMRI mice of both sexes are killed by decapitation, the skin is removed, washed in an antibiotic-antimycotic solution and incubated with the dermal side downward in dispase II solution ([…] in tissue culture medium M199+25 mmol/1 of HEPES+15% fetal calf serum (FCS)+50 U/ml of penicillin/streptomycin (P/S) (preparation medium, PM) at 4° C. overnight. The epidermis is removed and an individual cell suspension is produced by trypsinization. After centrifuging, the cell sediment is resuspended, after trypan blue dyeing, the number of living small round cells is determined and the cells are sown in a density of 4×10^5 cells/cm^2 in Primaria 24-hole plates in tissue culture medium (M199+15% FCS+50 U/ml of P/S). […] Then 0.4 microCi/50 microliters of ^3 H methyl thymidine (40 Ci/mmol) is added. After 4 hours the medium is suctioned off and the reaction is ended by addition of 500 microliters of ice-cold 10% trichloroacetic acid (TCA). The cells are washed with TCA and PBS, lysed by incubation in a proteinase K solution (10 mmol/l of tris-HCl, 10 mmol/l of EDTA, 10 mmol/l of NaCl, 0.2% of Triton-X 100, pH 8.0, 50 micrograms/ml of […]) and the lysate is clarified by centrifuging. In the supernatant the radioactivity is determined scintillation photometrically and, after specific staining of the DNA with diamidinophenylindole (DAPI), the DNA concentration is fluorescence photometrically determined.

Compound	IC50 [nM]
C=C1/C(=C\C=C2/CCC[C@]3(C)[C@@H]([C@H](C)/C=C/[C@H](O)CC(C)C)CC[C@@H]23)C[C@@H](O)C[C@@H]1O [Compound A, (5Z,7E,22E)-(1S,3R,24R)-9,10-seco-24a-homo-5,7,10(19),22-cholestatetraene-1,3,24-triol]	6
C=C1/C(=C\C=C2/CCC[C@]3(C)[C@@H]([C@H](C)/C=C/[C@@H](O)CC(C)C)CC[C@@H]23)C[C@@H](O)C[C@@H]1O [Compound B, (5Z,7E,22E)-(1S,3R,24S)-9,10-seco-24a-homo-5,7,10(19),22-cholestatetraene-1,3,24-triol]	9.5
C=C1/C(=C\C=C2/CCC[C@]3(C)[C@@H]([C@H](C)CCCC(C)(C)O)CC[C@@H]23)C[C@@H](O)C[C@@H]1O [Calcitriol, 1alpha,25-dihydroxy-cholecalciferol, reference compound]	2.7
